Assay results as given in PubChem BioAssay AID330 (DTP/NCI, 2004).
“And” between values parts separate entries of the source, which are not always exact repeats. Identical values can stand only once. Toxic doses and inconclusive results are not listed. The calls were made as follows: active = survival T/C of 150% or more; inactive = T/C below 125% in these data. Peptide text beside a SMILES is read from it. * marks the point of attachment. Cbz = O=C(OCc1ccccc1)*

System: P388 leukemia ip, CD2F1 mice, survival T/C
Assay: NCI In Vivo Anticancer Drug Screen. Data for tumor model P388 Leukemia (intraperitoneal) in CD2F1 (CDF1) mice
Conditions: endpoint: median survival time, higher = longer survival
Summary of the method: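 Mice carrying the transplanted tumor received test compound or vehicle. Survival was recorded in each group, and the value is the treated-group measurement divided by that of the vehicle-treated control group.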

[1] = dose: 50.0 mg/kg/injection, schedule: Q01DX005 (ip), vehicle: Klucel (hydroxypropylcellulose) (HPC)
[2] = dose: 100.0 mg/kg/injection, schedule: Q01DX005 (ip), vehicle: Klucel (hydroxypropylcellulose) (HPC)
[3] = dose: 200.0 mg/kg/injection, schedule: Q01DX005 (ip), vehicle: Klucel (hydroxypropylcellulose) (HPC)
[4] = dose: 100.0 mg/kg/injection, schedule: Q04DX003 (ip), vehicle: saline with Tween-80
[5] = dose: 100.0 mg/kg/injection, schedule: Q01DX009 (ip), vehicle: saline with Tween-80
[6] = dose: 100.0 mg/kg/injection, schedule: Q01DX001 (ip), vehicle: saline with Tween-80
[7] = dose: 200.0 mg/kg/injection, schedule: Q01DX001 (ip), vehicle: saline with Tween-80
[8] = dose: 25.0 mg/kg/injection, schedule: Q01DX009 (ip), vehicle: saline with Tween-80
[9] = dose: 50.0 mg/kg/injection, schedule: Q01DX009 (ip), vehicle: saline with Tween-80

Measured: T/C

CC(=O)O[C@H]1[C@@H]2c3c(ccc4c(=O)cc(-c5ccccc5)oc34)O[C@@H]2OC1(C)C
inactive: dose: 0.98 mg/kg/injection, schedule: Q01DX005 (ip), vehicle: Klucel (hydroxypropylcellulose) (HPC) 100 % of control | dose: 1.95 mg/kg/injection, schedule: Q01DX005 (ip), vehicle: Klucel (hydroxypropylcellulose) (HPC) 98 % of control | dose: 3.9 mg/kg/injection, schedule: Q01DX005 (ip), vehicle: Klucel (hydroxypropylcellulose) (HPC) 86 % of control

N#CCCN(N)S(=O)(=O)c1ccc(Cl)cc1
inactive: [1] 97 % of control | [2] 99 % of control | [3] 96 % of control

CC(C)N1COC2Cc3ccccc3CC21 (centres undefined)
inactive: dose: 6.25 mg/kg/injection, schedule: Q01DX005 (ip), vehicle: saline 99 % of control | dose: 12.5 mg/kg/injection, schedule: Q01DX005 (ip), vehicle: saline 101 % of control | dose: 25.0 mg/kg/injection, schedule: Q01DX005 (ip), vehicle: saline 101 % of control and 110 % of control | dose: 50.0 mg/kg/injection, schedule: Q01DX005 (ip), vehicle: saline 117 % of control and 120 % of control and 121 % of control

FC(F)(F)c1c[nH]cc1C(F)(F)F
inactive: dose: 50.0 mg/kg/injection, schedule: Q04DX002 (ip), vehicle: Klucel (hydroxypropylcellulose) (HPC) 109 % of control

CC(C)=NOC1CCCCC1O (centres undefined)
inactive: [4] 96 % of control | dose: 200.0 mg/kg/injection, schedule: Q04DX003 (ip), vehicle: saline with Tween-80 99 % of control | dose: 400.0 mg/kg/injection, schedule: Q04DX003 (ip), vehicle: saline with Tween-80 106 % of control

O=c1oc(-c2ccccc2)nc2c1CCS2
inactive: [1] 93 % of control | [2] 97 % of control | [3] 90 % of control

CC(=O)Nc1ccc(C(=O)C=O)cc1
inactive: [5] 119 % of control

CC(C)=CC(C(=O)C1CC1)C(CC(=O)C1CC1)C(C)C (centres undefined)
inactive: dose: 25.0 mg/kg/injection, schedule: Q01DX005 (ip), vehicle: saline with Tween-80 99 % of control | dose: 50.0 mg/kg/injection, schedule: Q01DX005 (ip), vehicle: saline with Tween-80 92 % of control | dose: 100.0 mg/kg/injection, schedule: Q01DX005 (ip), vehicle: saline with Tween-80 92 % of control

CC(O)C(NC(=O)OCc1ccccc1)C(=O)NC(Cc1ccccc1)C(=O)O (stereo not drawn) (Cbz-Thr-Phe-OH; configuration not given here)
inactive: [1] 100 % of control | [2] 101 % of control | [3] 101 % of control

CCOC(=O)c1c2c(c[nH]c1=O)CCCC2
inactive: [6] 106 % of control | [7] 97 % of control

CCOc1ccc(NS(=O)(=O)c2ccc(N)cc2)cc1CN(CCCl)CCCl
inactive: [6] 99 % of control | [7] 99 % of control | dose: 400.0 mg/kg/injection, schedule: Q01DX001 (ip), vehicle: saline with Tween-80 93 % of control

O=C(Cc1nc2ccccc2[nH]1)NNC(=S)NC1CCCCC1
inactive: [1] 87 % of control | [2] 88 % of control

CC(=O)OC1CCC2(C)C(=CCC3C4CC(C5(O)C(=O)Nc6ccccc65)C(=O)C4(C)CCC32)C1 (centres undefined)
inactive: [8] 102 % of control | [9] 93 % of control | [5] 94 % of control

COc1ccc(C2=C(O)c3cc4ccccc4nc3S2(=O)=O)cc1
inactive: dose: 50.0 mg/kg/injection, schedule: Q04DX002 (ip), vehicle: saline 103 % of control | dose: 100.0 mg/kg/injection, schedule: Q04DX002 (ip), vehicle: saline 100 % of control | dose: 200.0 mg/kg/injection, schedule: Q04DX002 (ip), vehicle: saline 102 % of control

CCC(=O)N1C(=O)C(C)C23c4cccc([N+](=O)[O-])c4C(=O)N2CCCN13 (centres undefined)
inactive: dose: 60.0 mg/kg/injection, schedule: Q01DX005 (ip), vehicle: Klucel (hydroxypropylcellulose) (HPC) 100 % of control | dose: 120.0 mg/kg/injection, schedule: Q01DX005 (ip), vehicle: Klucel (hydroxypropylcellulose) (HPC) 97 % of control | dose: 240.0 mg/kg/injection, schedule: Q01DX005 (ip), vehicle: Klucel (hydroxypropylcellulose) (HPC) 93 % of control

CC1(C(Cl)(Cl)Cl)C=CC(=NO)C=C1 (centres undefined)
inactive: [1] 110 % of control | [2] 107 % of control | [3] 110 % of control

CC(C)(C)c1ccc(-c2cc3nc(-c4ccccc4)cc(=O)n3[nH]2)cc1
inactive: dose: 60.0 mg/kg/injection, schedule: Q01DX005 (ip), vehicle: saline with Tween-80 100 % of control | dose: 120.0 mg/kg/injection, schedule: Q01DX005 (ip), vehicle: saline with Tween-80 98 % of control | dose: 240.0 mg/kg/injection, schedule: Q01DX005 (ip), vehicle: saline with Tween-80 98 % of control

CC(C)NC(=S)S
inactive: dose: 25.0 mg/kg/injection, schedule: Q01DX009 (ip), vehicle: saline sonified 104 % of control | dose: 50.0 mg/kg/injection, schedule: Q01DX009 (ip), vehicle: saline sonified 100 % of control | dose: 100.0 mg/kg/injection, schedule: Q01DX009 (ip), vehicle: saline sonified 109 % of control

Cc1cc2ncc(-c3ccccc3)nc2cc1C
inactive: dose: 25.0 mg/kg/injection, schedule: Q01DX001 (ip), vehicle: saline with Tween-80 100 % of control | dose: 50.0 mg/kg/injection, schedule: Q01DX001 (ip), vehicle: saline with Tween-80 100 % of control | [6] 89 % of control and 90 % of control

COc1cc(O)c(O)cc1C(C)(C)C
inactive: dose: 22.5 mg/kg/injection, schedule: Q01DX005 (ip), vehicle: saline with Tween-80 106 % of control | dose: 45.0 mg/kg/injection, schedule: Q01DX005 (ip), vehicle: saline with Tween-80 110 % of control | dose: 90.0 mg/kg/injection, schedule: Q01DX005 (ip), vehicle: saline with Tween-80 97 % of control

COc1ccc(-c2cc(-c3ccccc3)cc(-c3ccc(OC)cc3)n2)cc1
inactive: [1] 98 % of control | [2] 94 % of control | [3] 92 % of control

COc1cc2cc(c1Cl)N(C)C(=O)CC(OC(=O)C(C)C)C1(C)OC1C(C)C1CC(O)(NC(=O)O1)C(OC)/C=C/C=C(C)C2 (centres undefined)
inactive: dose: 3.1 micrograms/kg/injection, schedule: Q01DX009 (ip), vehicle: saline + alcohol 114 % of control | dose: 6.2 micrograms/kg/injection, schedule: Q01DX009 (ip), vehicle: saline + alcohol 119 % of control | dose: 6.25 micrograms/kg/injection, schedule: Q01DX009 (ip), vehicle: saline + alcohol 115 % of control | dose: 100.0 micrograms/kg/injection, schedule: Q01DX009 (ip), vehicle: saline + alcohol 106 % of control and 86 % of control | dose: 200.0 micrograms/kg/injection, schedule: Q01DX009 (ip), vehicle: saline + alcohol 94 % of control

O=C(CNC(=O)c1ccc(Cl)cc1Cl)N/N=C/c1cccc([N+](=O)[O-])c1
inactive: dose: 3.13 mg/kg/injection, schedule: Q01DX009 (ip), vehicle: saline with Tween-80 91 % of control | dose: 6.25 mg/kg/injection, schedule: Q01DX009 (ip), vehicle: saline with Tween-80 92 % of control | dose: 12.5 mg/kg/injection, schedule: Q01DX009 (ip), vehicle: saline with Tween-80 106 % of control

Cn1c([N+](=O)[O-])cnc1/C=[N+](\[O-])C1CCCCC1
inactive: dose: 50.0 mg/kg/injection, schedule: Q01DX009 (ip), vehicle: saline 100 % of control | dose: 100.0 mg/kg/injection, schedule: Q01DX009 (ip), vehicle: saline 100 % of control | dose: 200.0 mg/kg/injection, schedule: Q01DX009 (ip), vehicle: saline 102 % of control

O=C1C2CCC(C2)C1C(O)(C(F)(F)F)C(F)(F)F (centres undefined)
inactive: [8] 109 % of control | dose: 25.0 mg/kg/injection, schedule: Q04DX003 (ip), vehicle: saline with Tween-80 109 % of control | [9] 100 % of control | dose: 50.0 mg/kg/injection, schedule: Q04DX003 (ip), vehicle: saline with Tween-80 100 % of control | [5] 104 % of control | [4] 90 % of control

COC1/C=C\C=C(/C)C(=O)NC2=CC(=O)C(N)=C(CC(C)CC(OC)C(O)C(C)C=C(C)C1OC(N)=O)C2=O (centres undefined)
inactive: dose: 0.75 mg/kg/injection, schedule: Q01DX009 (ip), vehicle: saline with Tween-80 103 % of control | dose: 1.5 mg/kg/injection, schedule: Q01DX009 (ip), vehicle: saline with Tween-80 105 % of control | dose: 3.0 mg/kg/injection, schedule: Q01DX009 (ip), vehicle: saline with Tween-80 111 % of control | dose: 6.0 mg/kg/injection, schedule: Q01DX009 (ip), vehicle: saline with Tween-80 87 % of control
